These results are taken from patent US20100137139A1, “HERBICIDE/SAFENER COMBINATION” (BAYER CROPSCIENCE AG, priority 2008, published 2010).

“And” between values parts separate entries of the source, which are not always exact repeats. Equal entries are not always repeated.

Holding throughout (format): in vivo
Holding throughout (details): no safener

Test [1] has as its system Corn (Aventura). Briefly: Pre-emergence herbicidal effect and safener effect on corn, visual scoring in greenhouse. An excerpt:
(§1) Seeds or rhizome pieces of mono- and dicotyledonous weed plants and crop plants are planted in peat pots in sandy loam and covered with earth. The herbicide/safener active ingredient combinations according to the invention, formulated as water-soluble powders or suspensions, and, in parallel experiments, the correspondingly formulated individual active ingredients were then applied to the surface of the covering earth at an application rate of 600 to 800 I of water/ha (converted) in a variety of dosages.
(§2) After the treatment, the pots were placed in the greenhouse and kept under good growth conditions for the weeds and the crop plants. Visual scoring of the plant damage or emergence damage was carried out after the test plants had emerged after a test period of 2 to 4 weeks, in comparison with untreated controls.

Test [2] relates to Wheat (Triso). In words: Pre-emergence herbicidal effect and safener effect on wheat, visual scoring in greenhouse.
Excerpt: as §1, §2

The test system of test [3] is Wheat (Triso). Briefly: Post-emergence herbicidal effect and safener effect on wheat, visual scoring in greenhouse. The protocol:
(§3) Seeds or rhizome pieces of mono- and dicotyledonous harmful plants and of crop plants are planted in peat pots in sandy loam, covered with earth and grown in a greenhouse under good growth conditions. Alternatively to this, harmful plants occurring in the paddy rice cultivation are cultivated in pots in which water comes to 2 cm above the soil surface. 10 to 20 days after sowing, the test plants are treated in the one-to three-leaf stage. The herbicide/safener active ingredient combinations according to the invention, formulated as water-soluble powders or suspensions, and, in parallel experiments, the correspondingly formulated individual active ingredients are sprayed onto the green plant parts in various dosages using an application rate of 300 I of water/ha (converted) and, after the test plants have remained in the greenhouse under optimum growth conditions for 2-3 weeks, the effect of the preparations is scored visually in comparison with untreated controls. In the case of rice or in the case of harmful plants which occur in the rice cultivation, the active ingredients are also placed directly into the irrigation water (application analogous to the so-called granules application) or sprayed onto plants and into the irrigation water.

Test [4] deals with Corn (Aventura). In words: Post-emergence herbicidal effect and safener effect on corn, visual scoring in greenhouse. The protocol: as §3
Test [5] concerns Rice (Ballila). In words: Post-emergence herbicidal effect and safener effect on rice, visual scoring in greenhouse. The protocol:
as §3

Turning to `Nc1nc(C2CC2)nc(C(=O)[O-])c1Cl.[K+]` [Compound I-163, potassium salt of 6-amino-5-chloro-2-cyclopropyl-4-pyrimidinecarboxylic acid], the “% effect (without safener)” value in test [1] (herbicide 50 g a.i./ha) worked out at 50%; in test [2] (herbicide 50 g a.i./ha) it was 20%; in test [3] (herbicide 25 g a.i./ha), 10%; in test [4] (herbicide 25 g a.i./ha) it was 20%.

Regarding `Nc1nc(C2CC2)nc(C(=O)O)c1Cl` [Compound I-1, 6-amino-5-chloro-2-cyclopropyl-4-pyrimidinecarboxylic acid], the “% effect (without safener)” value in test [1] (herbicide 100 g a.i./ha) is on record as 50%; in test [2] (herbicide 25 g a.i./ha) it was 30%; in test [3] (herbicide 50 g a.i./ha), 20%.

Take `CCOC(=O)c1nc(C2CC2)nc(N)c1Cl` [Compound I-3, ethyl 6-amino-5-chloro-2-cyclopropyl-4-pyrimidinecarboxylate]: the “% effect (without safener)” value is 20% and 25% in test [1] (herbicide 50 g a.i./ha); 60% in test [4] (herbicide 50 g a.i./ha); 60% in test [5] (herbicide 25 g a.i./ha).

Take `Nc1nc(-c2ccc(Cl)cc2)nc(C(=O)O)c1Cl` [Compound I-109, 6-amino-5-chloro-2-(4-chlorophenyl)-4-pyrimidinecarboxylic acid]: the “% effect (without safener)” value in test [1] (herbicide 25 g a.i./ha) amounted to 20%; in test [2] (herbicide 25 g a.i./ha) it was 20%; in test [3] (herbicide 25 g a.i./ha), 30%; in test [4] (herbicide 25 g a.i./ha), 60%.

Turning to `Nc1nc(C2CC2)nc(C(=O)[O-])c1Cl.[Na+]` [Compound I-164, 6-amino-5-chloro-2-cyclopropyl-4-pyrimidinecarboxylic acid sodium salt], the “% effect (without safener)” value in test [2] (herbicide 25 g a.i./ha) is 10%; in test [3] (herbicide 25 g a.i./ha) it was 20%; in test [5] (herbicide 25 g a.i./ha, sodium salt), 10% and 20%; in test [5] (herbicide 50 g a.i./ha), 20%.
